The test system of this assay is Staphylococcus aureus ATCC 29213 (MSSA) and 13B-382 (MRSA). Kind of assay: Pharmacokinetic/pharmacodynamic analysis in neutropenic mouse thigh infection model. Format: in vivo, ICR mouse. As to conditions: oral administration. As to the method:
For the compound of formula 1, pharmacokinetic/pharmacodynamic experiments were conducted using a mouse infection model. To this end, experiments were conducted with Staphylococcus aureus ATCC 29213 (MSSA, standard strain) and 13B-382 (MRSA, clinical strain). As a medium, Mueller-Hinton broth or Cation-adjusted Mueller-Hinton broth was used. For the susceptibility test (minimum inhibitory concentration (MIC)), the compound of formula 1 was used.
An aseptic (Specific pathogen free, SPF) female, 6 weeks old (23˜27 g) ICR mouse (Orient Bio Inc, Gapyeong, Korea) was used, and the experiment was carried out in compliance with the regulations and procedures with the permission of the Ethics committees for animal experiments in accordance with the Animal Protection Act and the Laboratory Animal Act. […]
After 24 hours of drug administration, the mouse was euthanized with carbon dioxide gas and its thigh was separated, put in physiological saline, and cut finely with a homogenizer (Kinematica AG/Polytron®). […] The number of viable cells was counted and recorded. The results were expressed as log10 CFU/thigh, and the measurement limit of the number of viable cells in the laboratory was 1×10^2 CFU/thigh.
T/MIC was evaluated as an index to determine the effect of antibiotics in combination with the antimicrobial action and pharmacokinetic results according to the antimicrobial dosage and administration. […]

One molecule from patent publication US20220031607A1, “INJECTION COMPOSITION CONTAINING FAB I INHIBITOR, AND PREPARATION METHOD THEREFOR” (CRYSTALGENOMICS, INC., priority 2019, published 2022) can be followed below.

Structures are written as SMILES.

Take `Cc1c(N)cccc1Cn1ccc(OCCc2cccs2)cc1=O` [Compound of formula 1, 1-(3-amino-2-methylbenzyl)-4-(2-thiophen-2-yl-ethoxy)-1H-pyridin-2-one]: the bacteria eradicated result (T/MIC value approximately 20% or higher) was “more than 99.9%”. Moreover, the “T/MIC value at which more than 99.9% of bacteria were eradicated” value (24 hours) is recorded as no less than 20%.
